Measured values from US7981903B2, “2-[2-{phenylamino}-1H-pyrrolo[2,3-D]pyrimidin-4-yl)amino] benzamide derivatives as IGF-1R inhibitors for the treatment of cancer” (GlaxoSmithKline LLC, priority 2007, dated 2011).
pIC50: −log10 of the molar value. Values joined by “and” are separate entries in the source; they are usually repeats but may differ in a detail not shown here. Equal values may be shown once.

Tests used:
human IR (hIR) = target: T1, human IR (hIR) (Homo sapiens, UniProt P06213); assay: TR-FRET kinase assay of purified hIR; assay type: biochemical; details: activated hIR 0.5 nM, 10 μM ATP, values given as pIC50 category
T1 construct: containing amino acid residues 979-1382 of human IR; made in house; host or cells: Sf9 cells (baculovirus), same process as hIGF1R
T1 sequence (P06213 979-1382): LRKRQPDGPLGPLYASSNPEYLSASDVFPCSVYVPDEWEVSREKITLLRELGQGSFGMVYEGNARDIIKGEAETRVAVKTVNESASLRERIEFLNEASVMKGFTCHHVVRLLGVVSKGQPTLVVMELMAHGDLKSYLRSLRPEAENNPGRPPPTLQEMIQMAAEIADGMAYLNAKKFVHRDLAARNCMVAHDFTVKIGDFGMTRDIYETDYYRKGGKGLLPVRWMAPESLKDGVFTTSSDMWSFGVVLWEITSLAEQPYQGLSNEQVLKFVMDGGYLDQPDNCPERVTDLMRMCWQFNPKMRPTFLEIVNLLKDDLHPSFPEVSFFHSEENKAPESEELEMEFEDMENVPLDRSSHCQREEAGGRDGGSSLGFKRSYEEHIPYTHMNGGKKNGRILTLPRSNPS

ALK = ALK (Homo sapiens, UniProt Q9UM73); assay: ALK enzyme assay (HTRF); assay type: biochemical; details: 0.25 nM ALK, 15.0 μM ATP, values given as pIC50 category
ALK, sequence (Q9UM73 19-1620): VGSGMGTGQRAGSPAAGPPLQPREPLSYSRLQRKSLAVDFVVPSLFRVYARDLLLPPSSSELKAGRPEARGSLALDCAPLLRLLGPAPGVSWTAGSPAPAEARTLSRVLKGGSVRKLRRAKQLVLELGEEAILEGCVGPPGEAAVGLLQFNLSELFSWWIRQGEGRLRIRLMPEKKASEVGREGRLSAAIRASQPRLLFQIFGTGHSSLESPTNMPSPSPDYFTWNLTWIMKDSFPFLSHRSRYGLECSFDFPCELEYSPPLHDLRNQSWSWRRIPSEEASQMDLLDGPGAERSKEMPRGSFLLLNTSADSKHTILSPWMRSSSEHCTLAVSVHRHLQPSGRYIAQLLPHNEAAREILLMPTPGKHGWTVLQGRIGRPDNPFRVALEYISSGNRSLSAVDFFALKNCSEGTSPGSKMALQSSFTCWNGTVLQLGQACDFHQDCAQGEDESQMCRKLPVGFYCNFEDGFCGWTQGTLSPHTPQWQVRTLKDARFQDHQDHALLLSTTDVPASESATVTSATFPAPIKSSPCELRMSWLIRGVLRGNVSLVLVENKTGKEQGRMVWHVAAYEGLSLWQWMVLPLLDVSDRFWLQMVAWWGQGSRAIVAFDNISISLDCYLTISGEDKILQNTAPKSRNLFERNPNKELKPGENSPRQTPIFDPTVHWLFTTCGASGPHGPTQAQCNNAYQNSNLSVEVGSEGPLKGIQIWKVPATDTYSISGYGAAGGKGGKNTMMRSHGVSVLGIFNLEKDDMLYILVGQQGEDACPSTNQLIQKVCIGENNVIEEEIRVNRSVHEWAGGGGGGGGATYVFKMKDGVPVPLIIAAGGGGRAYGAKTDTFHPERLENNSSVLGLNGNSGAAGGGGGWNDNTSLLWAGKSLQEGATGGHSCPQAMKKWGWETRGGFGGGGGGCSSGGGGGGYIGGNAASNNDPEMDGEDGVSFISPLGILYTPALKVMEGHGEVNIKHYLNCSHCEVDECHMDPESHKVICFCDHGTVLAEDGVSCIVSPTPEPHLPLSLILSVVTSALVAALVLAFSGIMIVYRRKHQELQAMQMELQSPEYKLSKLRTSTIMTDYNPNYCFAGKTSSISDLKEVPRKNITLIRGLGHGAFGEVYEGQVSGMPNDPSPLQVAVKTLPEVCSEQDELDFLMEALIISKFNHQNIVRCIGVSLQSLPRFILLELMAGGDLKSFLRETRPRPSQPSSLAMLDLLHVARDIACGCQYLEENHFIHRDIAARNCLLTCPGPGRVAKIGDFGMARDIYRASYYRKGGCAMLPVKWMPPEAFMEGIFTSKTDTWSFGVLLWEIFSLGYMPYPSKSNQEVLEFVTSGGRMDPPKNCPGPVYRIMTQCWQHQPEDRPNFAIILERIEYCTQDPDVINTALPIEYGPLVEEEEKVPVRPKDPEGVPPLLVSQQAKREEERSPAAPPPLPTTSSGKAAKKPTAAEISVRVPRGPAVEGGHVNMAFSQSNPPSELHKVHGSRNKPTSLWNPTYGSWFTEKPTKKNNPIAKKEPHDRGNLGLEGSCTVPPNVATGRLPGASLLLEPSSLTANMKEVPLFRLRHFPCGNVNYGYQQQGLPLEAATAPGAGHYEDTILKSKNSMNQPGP
Procedure, shortened: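 Final compound range 0.00017 to 10 μM (twelve 1:3 dilutions). Kinase reaction with ATP and biotinylated synthetic peptide runs 120 min at 20° C, stopped with EDTA; phosphotyrosine detected by HTRF after 60 min. Inhibition referenced to DMSO (1%) and EDTA (0.1 M) controls, curve-fitted.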

Compound	pIC50 (human IR (hIR))	pIC50 (ALK)
COc1cc2c(cc1Nc1nc(Nc3cccc(F)c3C(=O)NC(C)C)c3cc[nH]c3n1)N(C(=O)CN(C)C)CC2 [Example 158, 2-[(2-{[1-(N,N-dimethylglycyl)-5-(methyloxy)-2,3-dihydro-1H-indol-6-yl]amino}-1H-pyrrolo[2,3-d]pyrimidin-4-yl)amino]-6-fluoro-N-(1-methylethyl)benzamide]	8.40 to 8.90	9.00 to 9.60
CNCC(=O)N1CCc2cc(OC)c(Nc3nc(Nc4cccc(F)c4C(N)=O)c4cc[nH]c4n3)cc21 [Example 142, 2-fluoro-6-[(2-{[1-(N-methylglycyl)-5-(methyloxy)-2,3-dihydro-1H-indol-6-yl]amino}-1H-pyrrolo[2,3-d]pyrimidin-4-yl)amino]benzamide]	8.40 to 8.90	8.40 to 8.90
CCCN(C)CC(=O)N1CCc2cc(OC)c(Nc3nc(Nc4cccc(F)c4C(=O)NC)c4cc[nH]c4n3)cc21 [Example 167, 2-fluoro-N-methyl-6-[(2-{[5-(methyloxy)-1-(N-methyl-N-propylglycyl)-2,3-dihydro-1H-indol-6-yl]amino}-1H-pyrrolo[2,3-d]pyrimidin-4-yl)amino]benzamide]	8.40 to 8.90	8.40 to 8.90 and 9.00 to 9.60
CN(C)CC(=O)Nc1ccc(Cl)c(Nc2nc(Nc3ccccc3C(N)=O)c3cc[nH]c3n2)c1 [Example 18, 2-{[2-({2-chloro-5-[(N,N-dimethylglycyl)amino]phenyl}amino)-1H-pyrrolo[2,3-d]pyrimidin-4-yl]amino}benzamide]	9.00 to 9.60	8.40 to 8.90
COc1cc2c(cc1Nc1nc(Nc3cccc(F)c3C(N)=O)c3cc[nH]c3n1)CN(CCF)CC2 [Example 233, 2-fluoro-6-[(2-{[2-(2-fluoroethyl)-6-(methyloxy)-1,2,3,4-tetrahydro-7-isoquinolinyl]amino}-1H-pyrrolo[2,3-d]pyrimidin-4-yl)amino]benzamide]	8.40 to 8.90	8.40 to 8.90
COc1cc2c(cc1Nc1nc(Nc3cccc(F)c3C(=O)NCC(C)C)c3cc[nH]c3n1)N(C(=O)CN(C)C)CC2 [Example 157, 2-[(2-{[1-(N,N-dimethylglycyl)-5-(methyloxy)-2,3-dihydro-1H-indol-6-yl]amino}-1H-pyrrolo[2,3-d]pyrimidin-4-yl)amino]-6-fluoro-N-(2-methylpropyl)benzamide]	8.40 to 8.90	8.40 to 8.90
CCCN1CCC(COc2ccc(Nc3nc(Nc4cccc(F)c4C(N)=O)c4cc[nH]c4n3)c(OC)c2)CC1 [Example 206, 2-fluoro-6-({2-[(2-(methyloxy)-4-{[(1-propyl-4-piperidinyl)methyl]oxy}phenyl)amino]-1H-pyrrolo[2,3-d]pyrimidin-4-yl}amino)benzamide]	8.40 to 8.90	8.40 to 8.90
COc1cc(N2CCOC[C@@H]2C)ccc1Nc1nc(Nc2cccc(F)c2C(N)=O)c2cc[nH]c2n1 [Example 49, 2-fluoro-6-[(2-{[4-[(3S)-3-methyl-4-morpholinyl]-2-(methyloxy)phenyl]amino}-1H-pyrrolo[2,3-d]pyrimidin-4-yl)amino]benzamide]	8.40 to 8.90	8.40 to 8.90
COc1cc2c(cc1Nc1nc(Nc3cc(F)cc(F)c3C(N)=O)c3cc[nH]c3n1)CN(CCF)CC2 [Example 239, 2,4-difluoro-6-[(2-{[2-(2-fluoroethyl)-6-(methyloxy)-1,2,3,4-tetrahydro-7-isoquinolinyl]amino}-1H-pyrrolo[2,3-d]pyrimidin-4-yl)amino]benzamide]	8.40 to 8.90	8.40 to 8.90
CNC(=O)c1c(F)cc(Cl)cc1Nc1nc(Nc2cc3c(cc2OC)CCCN3C(=O)CN2CCCC2)nc2[nH]ccc12 [Example 174, 4-chloro-2-fluoro-N-methyl-6-[(2-{[6-(methyloxy)-1-(1-pyrrolidinylacetyl)-1,2,3,4-tetrahydro-7-quinolinyl]amino}-1H-pyrrolo[2,3-d]pyrimidin-4-yl)amino]benzamide]	8.40 to 8.90	8.40 to 8.90
COc1cc(N2CCN(C(C)C)CC2)ccc1Nc1nc(Nc2cccc3c2C(=O)NC3)c2cc[nH]c2n1 [Example 199, 7-[(2-{[4-[4-(1-methylethyl)-1-piperazinyl]-2-(methyloxy)phenyl]amino}-1H-pyrrolo[2,3-d]pyrimidin-4-yl)amino]-2,3-dihydro-1H-isoindol-1-one]	8.40 to 8.90	9.00 to 9.60
COc1ccc(N2CCN(C(C)C)CC2)cc1Nc1nc(Nc2ccccc2C(N)=O)c2cc[nH]c2n1 [Example 10, 2-[(2-{[5-[4-(1-methylethyl)-1-piperazinyl]-2-(methyloxy)phenyl]amino}-1H-pyrrolo[2,3-d]pyrimidin-4-yl)amino]benzamide]	8.40 to 8.90	8.40 to 8.90
CNC(=O)c1c(F)cccc1Nc1nc(Nc2cc3c(cc2OC)CCN3C(=O)CN2CCCC2)nc2[nH]ccc12 [Example 139, 2-fluoro-N-methyl-6-[(2-{[5-(methyloxy)-1-(1-pyrrolidinylacetyl)-2,3-dihydro-1H-indol-6-yl]amino}-1H-pyrrolo[2,3-d]pyrimidin-4-yl)amino]benzamide]	8.40 to 8.90	9.00 to 9.60
CCN(C)CC(=O)N1CCc2cc(OC)c(Nc3nc(Nc4cccc(F)c4C(N)=O)c4cc[nH]c4n3)cc21 [Example 166, 2-[(2-{[1-(N-ethyl-N-methylglycyl)-5-(methyloxy)-2,3-dihydro-1H-indol-6-yl]amino}-1H-pyrrolo[2,3-d]pyrimidin-4-yl)amino]-6-fluorobenzamide]	8.40 to 8.90	8.40 to 8.90
CCCN1CCC(c2ccc(Nc3nc(Nc4cc(F)c(F)cc4C(N)=O)c4cc[nH]c4n3)c(OC)c2)CC1 [Example 98, 4,5-difluoro-2-[(2-{[2-(methyloxy)-4-(1-propyl-4-piperidinyl)phenyl]amino}-1H-pyrrolo[2,3-d]pyrimidin-4-yl)amino]benzamide]	9.00 to 9.60	9.00 to 9.60
Cc1cc2c(cc1Nc1nc(Nc3cccc(F)c3C(N)=O)c3cc[nH]c3n1)N(C(=O)CN(C)C)CCC2 [Example 246, 2-[(2-{[1-(N,N-dimethylglycyl)-6-methyl-1,2,3,4-tetrahydro-7-quinolinyl]amino}-1H-pyrrolo[2,3-d]pyrimidin-4-yl)amino]-6-fluorobenzamide]	9.00 to 9.60 and 8.40 to 8.90	6.70 to 8.30
COc1cc2c(cc1Nc1nc(Nc3ccc(F)c(F)c3C(N)=O)c3cc[nH]c3n1)N(C(=O)CN(C)C)CCC2 [Example 162, 6-[(2-{[1-(N,N-dimethylglycyl)-6-(methyloxy)-1,2,3,4-tetrahydro-7-quinolinyl]amino}-1H-pyrrolo[2,3-d]pyrimidin-4-yl)amino]-2,3-difluorobenzamide]	9.00 to 9.60	8.40 to 8.90

Next, values leading:

pIC50 (human IR (hIR))	pIC50 (ALK)	Compound
8.40 to 8.90	8.40 to 8.90	COc1cc(N2CCC(N3CC[C@H](F)C3)CC2)ccc1Nc1nc(Nc2cccc(F)c2C(N)=O)c2cc[nH]c2n1 [Example 43, 2-fluoro-6-[(2-{[4-{4-[(3S)-3-fluoro-1-pyrrolidinyl]-1-piperidinyl}-2-(methyloxy)phenyl]amino}-1H-pyrrolo[2,3-d]pyrimidin-4-yl)amino]benzamide]
9.00 to 9.60	9.00 to 9.60	COc1cc(N2CCC(N3CCCCC3)CC2)ccc1Nc1nc(Nc2cc(F)c(F)cc2C(N)=O)c2cc[nH]c2n1 [Example 100, 2-[(2-{[4-(1,4′-bipiperidin-1′-yl)-2-(methyloxy)phenyl]amino}-1H-pyrrolo[2,3-d]pyrimidin-4-yl)amino]-4,5-difluorobenzamide]
8.40 to 8.90	8.40 to 8.90	COc1cc(N2CCN(C(C)C)CC2)c(OC)cc1Nc1nc(Nc2cc(F)ccc2C(N)=O)c2cc[nH]c2n1 [Example 82, 4-fluoro-2-[(2-{[4-[4-(1-methylethyl)-1-piperazinyl]-2,5-bis(methyloxy)phenyl]amino}-1H-pyrrolo[2,3-d]pyrimidin-4-yl)amino]benzamide]
8.40 to 8.90	9.00 to 9.60	COc1cc(N2CCN(CC3CC3)CC2)ccc1Nc1nc(Nc2cc(F)ccc2C(N)=O)c2cc[nH]c2n1 [Example 81, 2-[(2-{[4-[4-(cyclopropylmethyl)-1-piperazinyl]-2-(methyloxy)phenyl]amino}-1H-pyrrolo[2,3-d]pyrimidin-4-yl)amino]-4-fluorobenzamide]
9.00 to 9.60	9.00 to 9.60	COc1cc(N2CCC(N3CCOCC3)CC2)ccc1Nc1nc(Nc2ccc(F)cc2C(N)=O)c2cc[nH]c2n1 [Example 59, 5-fluoro-2-{[2-({2-(methyloxy)-4-[4-(4-morpholinyl)-1-piperidinyl]phenyl}amino)-1H-pyrrolo[2,3-d]pyrimidin-4-yl]amino}benzamide]
9.00 to 9.60	9.00 to 9.60	CCCN1CCCC(c2ccc(Nc3nc(Nc4cc(F)ccc4C(N)=O)c4cc[nH]c4n3)c(OC)c2)C1 (stereo not shown) [Example 71, 4-fluoro-2-[(2-{[2-(methyloxy)-4-(1-propyl-3-piperidinyl)phenyl]amino}-1H-pyrrolo[2,3-d]pyrimidin-4-yl)amino]benzamide]
9.00 to 9.60	9.00 to 9.60	CCCN1CCC(c2ccc(Nc3nc(Nc4cc(F)ccc4C(N)=O)c4cc[nH]c4n3)c(OC)c2)CC1 [Example 73, 4-fluoro-2-[(2-{[2-(methyloxy)-4-(1-propyl-4-piperidinyl)phenyl]amino}-1H-pyrrolo[2,3-d]pyrimidin-4-yl)amino]benzamide]
8.40 to 8.90	8.40 to 8.90	COc1cc(N2CCN(C(C)C)CC2)ccc1Nc1nc(Nc2cc(F)cc(OC)c2C(N)=O)c2cc[nH]c2n1 [Example 88]
9.00 to 9.60	8.40 to 8.90	COc1cc(N2CCC(N3CC[C@H](F)C3)CC2)ccc1Nc1nc(Nc2cc(F)ccc2C(N)=O)c2cc[nH]c2n1 [Example 75, 4-fluoro-2-[(2-{[4-{4-[(3S)-3-fluoro-1-pyrrolidinyl]-1-piperidinyl}-2-(methyloxy)phenyl]amino}-1H-pyrrolo[2,3-d]pyrimidin-4-yl)amino]benzamide]
